Some results are limits rather than exact numbers.

Common to all, as to assay type: cell-based
For test [1], the system named is Ba/F3 cells expressing EGFR-wt. Description: Growth inhibition (GI50) of Ba/F3 cells expressing EGFR-wt, Celltiter glo. As to conditions: Mus musculus, BaF3, 72 h. How it is done:
(§1) In this experimental example, a determination was made as to whether the compounds prepared in Examples 1-283 have the ability to inhibit the growth of Ba/F3 cells expressing EGFR-wt, del19/T790M/C797S (EGFR-DTC), L858R/T790M/C797S (EGFR-LTC), del19/T790M (EGFR-DT), and L858R/T790M (EGFR-LT) variants.
(§2) The parental Ba/F3 cell line is a population of cells that are not introduced with EGFR variants. Specifically, 100 μl of a cell line expressing each variant was plated in a 96-well plate at a density of 100,000 cells/ml. 10-point, 4-fold serial dilutions of each compound were prepared, starting at 2 mM. After 4 h, 0.5 μl of the compound (0.5% DMSO) was added, followed by incubation at 37° C. and 5% CO2 for 72 h. After incubation, the number of viable cells was measured using a Celltiter glo assay kit (Promega) and the GI50 of the compound was determined. The term “GI50” refers to the molar concentration (μM) of the compound required for 50% growth inhibition of cells.

For test [2], the system named is Ba/F3 cells expressing L858R/T790M/C797S (EGFR-LTC). The test is described as follows: Growth inhibition (GI50) of Ba/F3 cells expressing L858R/T790M/C797S (EGFR-LTC), Celltiter glo. As to conditions: Mus musculus, BaF3, 72 h. How it is done:
as §1, §2

For a further test, the system named is parental Ba/F3 cell line. The test is described as follows: Growth inhibition (GI50) of the parental Ba/F3 cell line (not introduced with EGFR variants), Celltiter glo. Particulars: Mus musculus, BaF3, 72 h, parental Ba/F3 cells. On the procedure:
as §2

Test [3] relates to Ba/F3 cells expressing del19/T790M/C797S (EGFR-DTC). The test is described as follows: Growth inhibition (GI50) of Ba/F3 cells expressing del19/T790M/C797S (EGFR-DTC), Celltiter glo. Particulars: Mus musculus, BaF3, 72 h. On the procedure: as §1, §2

Consider `COc1nc(N2CCC(N3CCN(C)CC3)CC2)ccc1Nc1ncc(Cl)c(Nc2ccc3nccnc3c2NS(C)(=O)=O)n1` [Example 132, N-(6-((5-chloro-2-((2-methoxy-6-(4-(4-methylpiperazin-1-yl)piperidin-1-yl)pyridin-3-yl)amino)pyrimidin-4-yl)amino)quinoxalin-5-yl)methanesulfonamide], for which the concentration for 50% growth inhibition (GI50) in test [1] is 500 to 2000 nM; in test [2] it was 100 to 500 nM; in the test with parental Ba/F3 cell line, 500 to 2000 nM; in test [3], 100 to 500 nM.

Turning to `COc1nc(N2CCC(N3CCN(C)CC3)CC2)ccc1Nc1ncc(Cl)c(Nc2ccc3nccnc3c2P(C)(C)=O)n1` [Example 123, (6-((5-chloro-2-((2-methoxy-6-(4-(4-methylpiperazin-1-yl)piperidin-1-yl)pyridin-3-yl)amino)pyrimidin-4-yl)amino)quinoxalin-5-yl)dimethylphosphine oxide], the GI50 in test [1] is 500 to 2000 nM; in test [2], 100 to 500 nM; in the test on parental Ba/F3 cell line, 2000 to 10000 nM; in test [3] it was 100 to 500 nM.

As to `CNS(=O)(=O)c1ccccc1Nc1nc(Nc2cc(C)c(N3CCC(N4CCN(C)CC4)CC3)cc2OC)ncc1Cl` [Example 50, 2-((5-chloro-2-((2-methoxy-5-methyl-4-(4-(4-methylpiperazin-1-yl)piperidin-1-yl)phenyl)amino)pyrimidin-4-yl)amino)-N-methylbenzenesulfonamide], the GI50 in test [1] lay in the range of 500 to 2000 nM; in the test with parental Ba/F3 cell line, 500 to 2000 nM; in test [3] it was 100 to 500 nM.

Turning to `CCN1CCN(c2ccc(Nc3ncc(Cl)c(Nc4ccccc4NS(C)(=O)=O)n3)c(OC)n2)CC1` [Example 1], the GI50 in test [1] lay within 500 to 2000 nM; with parental Ba/F3 cell line, 2000 to 10000 nM; in test [3], 100 to 500 nM.

For the compound `COc1cc(N2CCC(N3CCN(C)CC3)CC2)c(C)cc1Nc1ncc(Cl)c(Nc2ccccc2C(F)(F)F)n1` [Example 46], the 50% growth inhibitory concentration (GI50) (in test [1]; in the test with parental Ba/F3 cell line; in test [3]) was 2000 to 10000 nM throughout.

Take `CS(=O)(=O)Nc1cc(F)ccc1Nc1nc(Nc2ccc(N3CCOCC3)nc2)ncc1Cl` [Example 13]: the GI50 in test [1] is 500 to 2000 nM; in the test with parental Ba/F3 cell line, 500 to 2000 nM; in test [3] it was 100 to 500 nM.

In the case of `CNS(=O)(=O)c1ccccc1Nc1nc(Nc2ccc(N3CCC(N4CCN(C)CC4)CC3)cc2OC)ncc1Cl` [Example 51, 2-((5-chloro-2-((2-methoxy-4-(4-(4-methylpiperazin-1-yl)piperidin-1-yl)phenyl)amino)pyrimidin-4-yl)amino)-N-methylbenzenesulfonamide], the GI50 in test [1] lay within 2000 to 10000 nM; in the test on parental Ba/F3 cell line, 2000 to 10000 nM; in test [3] it was 100 to 500 nM.

Consider `COc1nc(N2CCC(N3CCN(C)CC3)CC2)ccc1Nc1ncc(Cl)c(Nc2ccccc2S(=O)(=O)NC2CC2)n1` [Example 61], for which the 50% growth inhibitory concentration (GI50) in test [1] lay within 2000 to 10000 nM; in the test on parental Ba/F3 cell line, 500 to 2000 nM; in test [3], 2000 to 10000 nM.

Consider `COc1cc(N2CCC(N3CCN(C)CC3)CC2)c(C)cc1Nc1ncc(Cl)c(Nc2ccccc2S(=O)(=O)NC2CC2)n1` [Example 59, 2-((5-chloro-2-((2-methoxy-5-methyl-4-(4-(4-methylpiperazin-1-yl)piperidin-1-yl)phenyl)amino)pyrimidin-4-yl)amino)-N-cyclopropylbenzenesulfonamide], for which the GI50 (in test [1]; with parental Ba/F3 cell line; in test [3]) was 500 to 2000 nM in each case.

As to `CN1CCN(C2CCN(c3ccc(Nc4ncc(Cl)c(Nc5ccc(F)cc5NS(C)(=O)=O)n4)cn3)CC2)CC1` [Example 14], the results for the 50% growth inhibitory concentration (GI50) (in test [1]; in the test with parental Ba/F3 cell line; in test [3]) were more than 10000 nM, 2000 to 10000 nM and 2000 to 10000 nM, respectively.

For the compound `COc1cc(N2CCC(N3CCN(C)CC3)CC2)c(C)cc1Nc1ncc(Cl)c(Nc2ccccc2NS(C)(=O)=O)n1` [Example 2, N-(2-((5-chloro-2-((2-methoxy-5-methyl-4-(4-(4-methylpiperazin-1-yl)piperidin-1-yl)phenyl)amino)pyrimidin-4-yl)amino)phenyl)methanesulfonamide], the figures for the GI50 (in test [1]; with parental Ba/F3 cell line; in test [3]) were 100 to 500 nM, 500 to 2000 nM and 1 to 25 nM, respectively.

For `CCN1CCN(c2ccc(Nc3ncc(Cl)c(Nc4ccccc4C(F)(F)F)n3)cc2)CC1` [Example 48], the GI50 fell in the range of 2000 to 10000 nM in test [1], 2000 to 10000 nM with parental Ba/F3 cell line and 500 to 2000 nM in test [3].

On to `CN1CCN(C2CCN(c3ccc(Nc4ncc(Cl)c(Nc5ccccc5NS(C)(=O)=O)n4)c(OCC(F)(F)F)n3)CC2)CC1` [Example 4, N-(2-((5-chloro-2-((6-(4-(4-methylpiperazin-1-yl)piperidin-1-yl)-2-(2,2,2-trifluoroethoxy)pyridin-3-yl)amino)pyrimidin-4-yl)amino)phenyl)methanesulfonamide], for which the 50% growth inhibitory concentration (GI50) lay in the range of 2000 to 10000 nM in test [1], 2000 to 10000 nM in the test with parental Ba/F3 cell line and 500 to 2000 nM in test [3].

For the compound `COc1cc(N2CCC(N3CCN(C)CC3)CC2)c(C)cc1Nc1ncc(Cl)c(Nc2ccc(F)cc2NS(C)(=O)=O)n1` [Example 12], the GI50 was 100 to 500 nM in test [1], 2000 to 10000 nM in the test on parental Ba/F3 cell line and 25 to 100 nM in test [3].

As for `CNS(=O)(=O)c1ccccc1Nc1nc(Nc2ccc(N3CCOCC3)nc2)ncc1Cl` [Example 53, 2-((5-chloro-2-((6-morpholinopyridin-3-yl)amino)pyrimidin-4-yl)amino)-N-methylbenzenesulfonamide], the GI50 (in test [1]; in the test on parental Ba/F3 cell line; in test [3]) was 100 to 500 nM throughout.

In the case of `COc1nc(N2CCC(N3CCN(C)CC3)CC2)ccc1Nc1ncc(Cl)c(Nc2ccc(F)cc2NS(C)(=O)=O)n1` [Example 17, N-(2-((5-chloro-2-((2-methoxy-6-(4-(4-methylpiperazin-1-yl)piperidin-1-yl)pyridin-3-yl)amino)pyrimidin-4-yl)amino)-5-fluorophenyl)methanesulfonamide], the concentration for 50% growth inhibition (GI50) in test [1] lay in the range of 2000 to 10000 nM; in the test with parental Ba/F3 cell line, 2000 to 10000 nM; in test [3], 500 to 2000 nM.

On to `CN1CCN(C2CCN(c3ncc(Nc4ncc(Cl)c(Nc5ccc(F)cc5NS(C)(=O)=O)n4)cc3F)CC2)CC1` [Example 16], for which the GI50 lay in the range of 2000 to 10000 nM in test [1], 500 to 2000 nM in the test with parental Ba/F3 cell line and 500 to 2000 nM in test [3].

As for `CN1CCN(C2CCN(c3ccc(Nc4ncc(Cl)c(Nc5ccccc5NS(C)(=O)=O)n4)cc3F)CC2)CC1` [Example 5, N-(2-((5-chloro-2-((3-fluoro-4-(4-(4-methylpiperazin-1-yl)piperidin-1-yl)phenyl)amino)pyrimidin-4-yl)amino)phenyl)methanesulfonamide], the figures for the GI50 (in test [1]; with parental Ba/F3 cell line; in test [3]) were 100 to 500 nM, 25 to 100 nM and 1 to 25 nM, respectively.

Turning to `CNS(=O)(=O)c1ccccc1Nc1nc(Nc2ccc(N3CCC(N4CCN(C)CC4)CC3)nc2OC)ncc1Cl` [Example 55, 2-((5-chloro-2-((2-methoxy-6-(4-(4-methylpiperazin-1-yl)piperidin-1-yl)pyridin-3-yl)amino)pyrimidin-4-yl)amino)-N-methylbenzenesulfonamide], the concentration for 50% growth inhibition (GI50) in test [1] lay within 500 to 2000 nM; in the test on parental Ba/F3 cell line, 100 to 500 nM; in test [3], 500 to 2000 nM.

For the compound `FC(F)(F)c1ccccc1Nc1nc(Nc2ccc(N3CCOCC3)nc2)ncc1Cl` [Example 49], the GI50 in test [1] lay in the range of 2000 to 10000 nM; in the test with parental Ba/F3 cell line, 2000 to 10000 nM; in test [3], 500 to 2000 nM.

In the case of `CN1CCN(C2CCN(c3ccc(Nc4ncc(Cl)c(Nc5ccccc5S(=O)(=O)NC5CC5)n4)cc3F)CC2)CC1` [Example 60, 2-((5-chloro-2-((3-fluoro-4-(4-(4-methylpiperazin-1-yl)piperidin-1-yl)phenyl)amino)pyrimidin-4-yl)amino)-N-cyclopropylbenzenesulfonamide], the GI50 in test [1] lay in the range of 100 to 500 nM; in the test on parental Ba/F3 cell line, 100 to 500 nM; in test [3], 25 to 100 nM.

As to `CN1CCN(C2CCN(c3ccc(Nc4ncc(Cl)c(Nc5ccccc5NS(C)(=O)=O)n4)cn3)CC2)CC1` [Example 3, N-(2-((5-chloro-2-((6-(4-(4-methylpiperazin-1-yl)piperidin-1-yl)pyridin-3-yl)amino)pyrimidin-4-yl)amino)phenyl)methanesulfonamide], the 50% growth inhibitory concentration (GI50) in test [1] lay in the range of 500 to 2000 nM; with parental Ba/F3 cell line, 500 to 2000 nM; in test [3] it was 100 to 500 nM.

Consider `CNS(=O)(=O)c1ccccc1Nc1nc(Nc2ccc(N3CCC(N4CCN(C)CC4)CC3)nc2)ncc1Cl` [Example 52, 2-((5-chloro-2-((6-(4-(4-methylpiperazin-1-yl)piperidin-1-yl)pyridin-3-yl)amino)pyrimidin-4-yl)amino)-N-methylbenzenesulfonamide], for which the values for the 50% growth inhibitory concentration (GI50) (in test [1]; with parental Ba/F3 cell line; in test [3]) were 100 to 500 nM, 100 to 500 nM and 25 to 100 nM, respectively.

For `CCN1CCN(c2ccc(Nc3ncc(Cl)c(Nc4ccccc4S(=O)(=O)NC)n3)c(OC)n2)CC1` [Example 54, 2-((5-chloro-2-((6-(4-ethylpiperazin-1-yl)-2-methoxypyridin-3-yl)amino)pyrimidin-4-yl)amino)-N-methylbenzenesulfonamide], the GI50 in test [1] was in the range of 100 to 500 nM; in the test on parental Ba/F3 cell line, 2000 to 10000 nM; in test [3] it was 2000 to 10000 nM.

Take `COc1cc(N2CCC(N3CCN(C)CC3)CC2)ccc1Nc1ncc(Cl)c(Nc2ccccc2C(F)(F)F)n1` [Example 47]: the results for the GI50 (in test [1]; in the test with parental Ba/F3 cell line; in test [3]) were 2000 to 10000 nM, 2000 to 10000 nM and 500 to 2000 nM, respectively.

Source of the values: patent US20240228458A1, “PYRIMIDINE DERIVATIVE HAVING PROTEIN KINASE INHIBITORY ACTIVITY, AND THERAPEUTIC PHARMACEUTICAL COMPOSITION COMPRISING SAME” (THERAPEX CO., LTD., priority 2021, published 2024).
